The source of these data is US5723625A, “Process for the production of specific isomer mixtures from oxindole alkaloids” (Immodal Pharmaka Gesellschaft m.b.H, priority 1994, dated 1998).

By logD is commonly meant lipophilicity at a set pH, counting ionised and neutral species. A lower logD goes with a more hydrophilic compound.

What all share (type): physicochemical
Data set [1] can be described thus: Effect of temperature and solvent on the equilibrium composition of the mitraphylline isomers. The source says:
The use of solvents with different polarity gave different equilibria, while other conditions were identical.

A further data set can be described thus: physchem. The following applies: 1-octanol/water. The source says: (§1) Protonation of the alkaloid hinders partition into the solvent, but the dependence of the distribution coefficient on pH is different for each isomer due to their different basicity. When the isomerization takes place in such a two-phase system, the equilibrium obtained in the organic phase is different from that in the aqueous phase. As an example, the coefficients of distribution Ko/w of mitraphylline and isomitraphylline between 1-octanol and water at three pH values and the corresponding equilibria are given in table 6 (FIG.11). |Coefficients of distribution between 1-octanol and water KO/W for |mitraphylline and isomitraphylline and the resulting equilibria as a |function of pH at 25° C. (% per weight).

Data set [2] can be described thus: Equilibrium of mitraphylline isomers in the two-phase system 1-octanol/water. To be noted: for resulting equilibrium (water): aqueous phase; for resulting equilibrium (octanol): octanol phase.
From the text: as §1

Data set [3] can be described thus: Effect of temperature and solvent on the equilibrium composition of the pteropodine isomers. On the procedure:
| Effect of temperature and solvent on the equilibrium composition | of the pteropodine isomers (temperature from 25 to | 50° C., % per weight) The use of solvents with different polarity gave different equilibria, while other conditions were identical.

A short description of data set [4]: Rate of isomerization of pteropodine in solvents and solvent mixtures. To be noted: 50° C.; for rate coefficient of isomerization k: k = k12 + k13 + k14 from initial rate. On the procedure: It is known from the literature that oxindole alkaloids undergo isomerization in polar solvents. Therefore hexafluoropropan-2-ol as a highly polar solvent was examined for its suitability as a medium for isomerization. A solution of pteropodine in hexafluoropropan-2-ol with a concentration of 18 mg/l was allowed to rest for 8 days at 20° C. Continually, samples were taken and analyzed. […] Pyridine has been reported to be a suitable solvent for the isomerization, although its polarity is very low. Our results confirmed this, but only when at least small portions of water were present. […] Important causes of solvent polarity are the dielectricity constant and the ability to form hydrogen bonds. The correlation of dielectricity and rate of reaction was investigated (table 1). | Correlation of the rate coefficient of isomerization of pteropodine and |dielectricity constant ε in pure solvents at 50° C.^a | ^a The rate coefficient k was determined from the initial rate of | isomerization of pteropodine and, therefore, is a composite coefficient k | = k12 + k13 + k14 and has the dimension [h^-1 ]. The | coefficient k12 describes the transformation of pteropodine to | isopteropodine, k13 to speciophylline and k14 to uncarine F, | respectively. […] But it was noticed that solvents with the ability to form hydrogen bonds, like formamide, water, glycerol or methanol, effect faster isomerization than solvents without this ability. […] Consequently, mixtures of solvents were produced from one part with a high dielectricity constant and another part with the ability to form hydrogen bonds as a proton donor. Mixtures of one part formamide and one part alcohol turned out to be suitable reaction media. Water is the only solvent which combines a high dielectricity constant with the ability to form hydrogen bonds to an extent which allows satisfactory reaction rates. However, oxindole alkaloids are practically insoluble in water. Thus, it is obvious to use suitable co-solvents.

Data set [5] can be described thus: Isomerization of pteropodine in hexafluoropropan-2-ol. The following applies: 18 mg/l, 8 days at 20° C. The protocol: It is known from the literature that oxindole alkaloids undergo isomerization in polar solvents. Therefore hexafluoropropan-2-ol as a highly polar solvent was examined for its suitability as a medium for isomerization. A solution of pteropodine in hexafluoropropan-2-ol with a concentration of 18 mg/l was allowed to rest for 8 days at 20° C. Continually, samples were taken and analyzed. […] Pyridine has been reported to be a suitable solvent for the isomerization, although its polarity is very low. Our results confirmed this, but only when at least small portions of water were present. […] Important causes of solvent polarity are the dielectricity constant and the ability to form hydrogen bonds. The correlation of dielectricity and rate of reaction was investigated (table 1).

Data set [6] can be described thus: Effect of pH on equilibrium and rate of isomerization. The following applies: for dependence of isomer equilibrium mixture on pH: water-methanol 9:1, c=30 mg/l. The text has this:
It is known from the literature (J. -L. Pousset, J. Poisson and M. Shamma, Bull.Soc.Chim. (1967), 2766) that oxindole alkaloids isomerize via a zwitterionic intermediate which is formed at the β-amino carboxyl system. There a double bond is formed between the amino nitrogen and the β-carbon, the bond between α and β-carbon is opened, and the spiro centre at the co-carbon becomes free for inversion (FIG. 2). […] The pH of a mixture of 9 parts of water and 1 part of methanol was adjusted to values from 2 to 9 by addition of phosphoric acid or sodium hydroxide, respectively. Pteropodine (c=30 mg/l) was isomerized in these solvents until the equilibrium was reached. […] The dependence of the pteropodine equilibrium on pH in pure water was investigated, too (FIG. 3b). […] (FIG. 4).

A short description of data set [7]: Effect of temperature on the rate of isomerization of pteropodine. The following applies: water, c=20 mg/l, 50 hours. On the procedure:
The effect of temperature on the rate of reaction was investigated. Pteropodine was dissolved in water (c=20 mg/l) and isomerized at various temperatures for 50 hours. The reactions were monitored (FIG. 9). An increase of temperature by 12° C. accelerated the reaction by a factor of 5.

For `COC(=O)C1=COC(C)C2CN3CCC4(C(=O)Nc5ccccc54)C3CC12` (stereo not drawn) [Isomitraphylline, isomitraphylline], the equilibrium composition in data set [1] (25° C., methanol) is 77.5 % per weight; in data set [1] (25° C., water), 65.6 % per weight; in data set [1] (37° C., methanol), 75.0 % per weight; in data set [1] (37° C., water) it was 67.5 % per weight; in data set [1] (50° C., methanol), 73.7 % per weight; in data set [1] (50° C., water), 68.0 % per weight. For the same compound, the “log KO/W” value in the data set “physchem” (pH 3) was 0.43; in “physchem” (pH 5), 2.3; in “physchem” (pH 7), 2.8. The “resulting equilibrium (water)” value in data set [2] (pH 3, 25° C.) is recorded as 11.9 % per weight; in data set [2] (pH 5, 25° C.), 0.5 % per weight; in data set [2] (pH 7, 25° C.), 0.08 % per weight. Also, the “resulting equilibrium (octanol)” value was found to be 32.0 % per weight in data set [2] (pH 3, 25° C.); 93.9 % per weight in data set [2] (pH 5, 25° C.); 78.8 % per weight in data set [2] (pH 7, 25° C.).
Take `COC(=O)C1=COC(C)C2CN3CCC4(C(=O)Nc5ccccc54)C3CC12` (stereo not drawn) [Uncarine F, uncarine F]: the equilibrium composition is 1.3 % per weight in data set [3] (25° C., methanol); 5.2 % per weight in data set [3] (25° C., water); 1.4 % per weight in data set [3] (37° C., methanol); 6.1 % per weight in data set [3] (37° C., water); 2.0 % per weight in data set [3] (50° C., methanol); 6.4 % per weight in data set [3] (50° C., water).
On to `COC(=O)C1=COC(C)C2CN3CCC4(C(=O)Nc5ccccc54)C3CC12` (stereo not drawn) [Mitraphylline, mitraphylline], for which the equilibrium composition in data set [1] (25° C., methanol) turned out to be 22.5 % per weight; in data set [1] (25° C., water), 34.4 % per weight; in data set [1] (37° C., methanol) it was 25.0 % per weight; in data set [1] (37° C., water) it was 32.5 % per weight; in data set [1] (50° C., methanol) it was 26.3 % per weight; in data set [1] (50° C., water), 32.0 % per weight. Besides, the results for the “log KO/W” value in “physchem” (pH 3) and in “physchem” (pH 5) were -0.24 and 0.67, respectively. Moreover, the logD in “physchem” (pH 7, log KO/W) is 2.5. In addition, the “resulting equilibrium (water)” value in data set [2] (pH 3, 25° C.) stood at 35.6 % per weight; in data set [2] (pH 5, 25° C.) it was 1.0 % per weight; in data set [2] (pH 7, 25° C.), 0.12 % per weight. Also, the “resulting equilibrium (octanol)” value in data set [2] (pH 3, 25° C.) is reported as 20.5 % per weight; in data set [2] (pH 5, 25° C.), 4.6 % per weight; in data set [2] (pH 7, 25° C.) it was 21.0 % per weight.
For the compound `COC(=O)C1=COC(C)C2CN3CCC4(C(=O)Nc5ccccc54)C3CC12` (stereo not drawn) [Speciophylline, speciophylline], the equilibrium composition in data set [3] (25° C., methanol) came out at 0.4 % per weight; in data set [3] (25° C., water) it was 4.3 % per weight; in data set [3] (37° C., methanol), 0.5 % per weight; in data set [3] (37° C., water), 4.5 % per weight; in data set [3] (50° C., methanol) it was 1.0 % per weight; in data set [3] (50° C., water), 4.6 % per weight.
Regarding `COC(=O)C1=COC(C)C2CN3CCC4(C(=O)Nc5ccccc54)C3CC12` (stereo not drawn) [Pteropodine, pteropodine], the “rate coefficient of isomerization k” value in data set [4] (dimethyl sulfoxide) was found to be 0.00007 h⁻¹; in data set [4] (dioxane) it was 0.0000004 h⁻¹; in data set [4] (formamide), 0.005 h⁻¹; in data set [4] (glycerol), 0.0072 h⁻¹; in data set [4] (methanol) it was 0.0020 h⁻¹; in data set [4] (pyridine), 0.00002 h⁻¹. In data set [4] (water), the “rate coefficient of isomerization k” value was 1.11 h⁻¹. Also, the “rate of isomerization k” value is 0.0037 h⁻¹ in data set [4] (formamide-hexafluorpropan-2-ol (1:1)); 0.0050 h⁻¹ in data set [4] (formamide-methanol (1:1)); 0.0018 h⁻¹ in data set [4] (methanol-dimethyl sulfoxide (1:1)); 0.0024 h⁻¹ in data set [4] (methanol-dioxane (1:1)); 0.042 h⁻¹ in data set [4] (water-acetonitrile (1:1)); 0.0012 h⁻¹ in data set [4] (water-dioxane (1:1)). Moreover, the entries for the “rate of isomerization k” value in data set [4] (water-formamide (1:1)), in data set [4] (water-methanol (1:1)) and in data set [4] (water-pyridine (1:1)) were 0.067 h⁻¹, 0.043 h⁻¹ and 0.002 h⁻¹, respectively. In addition, the isomerization result in data set [5] is “No isomerization was observed”. In addition, the figures for the “dependence of isomer equilibrium mixture on pH” value in data set [6] (acidic solutions) and in data set [6] (neutral or alkaline solutions) were “depended characteristically on the pH value” and “independent of pH in neutral or alkaline solutions”, respectively. For the same compound, the “rate of reaction with increasing proton concentration” value in data set [6] (pH 2 to 9) was “decreased with increasing proton concentration”. Also, the equilibrium composition in data set [3] (25° C., methanol) came out at 22.9 % per weight; in data set [3] (25° C., water), 29.6 % per weight; in data set [3] (37° C., methanol), 22.6 % per weight; in data set [3] (37° C., water), 29.8 % per weight; in data set [3] (50° C., methanol) it was 23.5 % per weight; in data set [3] (50° C., water), 29.6 % per weight. In data set [7], the “acceleration of the reaction by an increase of temperature by 12° C. (factor)” value is 5.
For the compound `COC(=O)C1=CO[C@@H](C)[C@@H]2CN3CC[C@@]4(C(=O)Nc5ccccc54)[C@@H]3C[C@H]12` [Isopteropodine, isopteropodine], the equilibrium composition was 75.4 % per weight in data set [3] (25° C., methanol); 60.9 % per weight in data set [3] (25° C., water); 75.5 % per weight in data set [3] (37° C., methanol); 59.6 % per weight in data set [3] (37° C., water); 73.5 % per weight in data set [3] (50° C., methanol); 59.4 % per weight in data set [3] (50° C., water).
